Source: US20080027088A1, “Imidazole-Based Hmg-Coa Reductase Inhibitors” (Warner-Lambert Company, LLC, priority 2004, published 2008)

Key:
Type in all cases: in vivo
[1] = test system: ApoE KO mice fed a Western diet; assay: Sphinganine in liver and aorta by LC/MS, 12 weeks; details: 0.3 mg/kg/day
Excerpt: Analysis of Sphingolipids and Phospholipids by LC/MS and HPLC-Total lipids were extracted by the modified method of Bligh-Dyer extraction (E. G. Bligh and W. J. Dyer, Can. J. Med. Sci. 1959;37:911-917; and D. K. Perry, A. Bielawska and Y. A. Hannun, Methods Enzymol. 2000;312:22-31). A Micromass (Waters Corp., Milford, Mass.) Quattro Ultima tandem quadrupole mass spectrometer with a standard Z-sprayTM ion source, set to electrospray positive ionization mode, with MassLynxTM version 3.5 operating software, was used for all quantitative determinations. Source conditions were typically as follows: capillary 3.5 kV, source temperature 110 degrees C., and desolvation temperature 325 degrees C. Multipliers were set to 650 V, and the dwell time for each analyte was 100 milliseconds. […] The following ion transitions were used for quantification: sphingomyelin (704→184 m/z), sphinganine (302→284 m/z), ceramide (566→264 m/z) and psychosine (462→282 m/z) as an internal standard. […] For the quantitative method, the analytical column was a Phenomenex (Torrance, Calif.) Polar-RP (2.0×150 mm, 4 μm) with a […] […] Lipid extracts were analyzed by HPLC and evaporative light scattering detector to determine plasma sphingomyelin and phosphatidylcholine (PC) levels (R. Homan and M.K. Anderson, J. Chromatogr. B. Biomed. Sci. Appl. 1998;708:21-6). […] Sphinganine levels in liver (A) and aorta (B) were determined by LC/MS. […]

[2] = test system: ApoE KO mice fed a Western diet; assay: Plasma lipoprotein cholesterol distribution by FPLC, 4 weeks; details: doses 0.1-1.0 mg/kg/day
Protocol: (§1) Animal experiments—Male C57BI/6J and ApoE KO mice on C57BI/6J background were obtained from the Jackson Laboratory (Bar Harbor, Me.) or Taconic (Germantown, N.Y.) (Plaque formation in ApoE KO mice is lipid-driven (A. S. Plump et al., Cell. 1992;71 (2):343-53)). Myriocin was mixed with Western diet containing 0.21% cholesterol and 21% fat. 8-12-week-old mice received 0.3 mg myriocin/kg/day for 12 weeks (Table 1). 10-12 week-old ApoE KO mice (n=8) were pre-fed a western diet for 2 weeks and mice received various concentrations of myriocin for 4 weeks in diet admix. Control groups consisted of ApoE KO mice fed normal chow or Western diet without myriocin, and normal chow-fed C57BI/6J mice. Body weight and chow feeding was measured every week to examine the food consumption. For the femoral artery cuff model, 8-10 week-old male ApoE KO mice were anethetized and the right femoral artery was dissected from its surroundings. A nonconstrictive polyethylene cuff (Portex, 0.40-mm inner diameter, 0.80-mm outer diameter, and 1.5-mm length) was placed looselyaround the right femoral artery.
(§2) Plasma lipids and serum amyloid A measurement—Mice were sacrificed by CO2 inhalation and blood was collected through cardiac puncture. Plasma concentrations of total cholesterol and triglyceride were determined enzymatically on a Cobas Mira Plus auto-analyzer using Cholesterol R1 and Triglycerides Reagent methods, respectively (Roche Diagnostics, Indiana, USA). Colormetric changes were measured at 500 nm. Lipoproteins were separated from mouse plasma by fast-protein liquid chromatography utilizing a Superose 6HR column. Cholesterol distribution among lipoproteins was determined by in-line post column analysis (K. A. Kieft, T. M. Bocan and B. R. Krause, J. Lipid Res. 1991; 32:859-66). Serum Amyloid A (SAA) protein in plasma was measured by ELISA according to the manufacturer's instructions (Biosource).
FIG. 2. […] Cholesterol distribution among lipoproteins was determined by in-line post column analysis (Kieft, K. A., T. M. A. Bocan, B. R. Krause, J. Lipid Res. 1991, 32: 859-866). […]

[3] = test system: ApoE KO mice fed a Western diet; assay: Plasma lipoprotein cholesterol distribution by FPLC, 12 weeks; details: 0.3 mg/kg/day
Protocol: as §1, §2
FIG. 6. Plasma Lipoprotein Distribution of ApoE KO Mice Fed a Western Diet. After 12 weeks of diet admix myriocin treatment (0.3 mg/kg/day), mice were sacrificed and plasma was isolated for lipoprotein composition. βVLDL (A), LDL (B) and HDL (C) Lipoproteins were separated from mouse plasma by fast-protein liquid chromatography (FPLC) utilizing a Superose 6HR column. Cholesterol distribution among lipoproteins was determined by in-line post column analysis (Kieft, K. A., T. M. A. Bocan, B. R. Krause, J. Lipid Res. 1991, 32:859-866.). The values reported are mean±SEM (n=5, *P<0.01, Western diet vs other study groups; n=5, #P<0.05, Western diet plus myriocin vs normal chow).

[4] = vs Western diet-fed ApoE KO mice

Compound: CCCCCCC(=O)CCCCCC/C=C/C[C@@H](O)[C@H](O)[C@@](N)(CO)C(=O)O [myriocin]
- sphinganine levels in the liver lowered [1, 4]: 42%
- sphinganine levels in aorta lower ([1]; vs Western diet-fed group): 45%
- HDL-cholesterol raised [2]: 2.1 fold
- LDL-cholesterol lowered, at maximum [2]: 63%
- VLDL-cholesterol lowered, at maximum [2]: 83%
- plasma apoB levels ([3]; comparable to standard chow-fed group): lowered
- HDL-cholesterol content increased [3, 4]: 54%
- LDL-cholesterol lowered [3, 4]: 35%
- βVLDL-cholesterol lowered [3, 4]: 51%
